In patent publication US20060116328A1, “Combined use of carnosinase inhibitor with l-carnosines and composition” (priority 2003, published 2006):
One block for each compound: values may come before it. Peptide text beside a SMILES is read from it.

What was measured:
[1] = target: T1, tissue carnosinase (Rattus norvegicus, UniProt Q6Q0N1); assay: Hydrolysis of L-carnosine and related substance with tissue carnosinase in the absence or presence of a carnosinase inhibitor; assay type: biochemical, male Hairless rats; conditions: pH 7.0, 37° C.
T1 construct: Partially purified tissue carnosinase as a solution in 0.1M phosphate buffer (pH 7.0) is prepared from the crude brain extracts; from tissue; host or cells: brain of male Hairless rats
T1 sequence (Q6Q0N1 1-475): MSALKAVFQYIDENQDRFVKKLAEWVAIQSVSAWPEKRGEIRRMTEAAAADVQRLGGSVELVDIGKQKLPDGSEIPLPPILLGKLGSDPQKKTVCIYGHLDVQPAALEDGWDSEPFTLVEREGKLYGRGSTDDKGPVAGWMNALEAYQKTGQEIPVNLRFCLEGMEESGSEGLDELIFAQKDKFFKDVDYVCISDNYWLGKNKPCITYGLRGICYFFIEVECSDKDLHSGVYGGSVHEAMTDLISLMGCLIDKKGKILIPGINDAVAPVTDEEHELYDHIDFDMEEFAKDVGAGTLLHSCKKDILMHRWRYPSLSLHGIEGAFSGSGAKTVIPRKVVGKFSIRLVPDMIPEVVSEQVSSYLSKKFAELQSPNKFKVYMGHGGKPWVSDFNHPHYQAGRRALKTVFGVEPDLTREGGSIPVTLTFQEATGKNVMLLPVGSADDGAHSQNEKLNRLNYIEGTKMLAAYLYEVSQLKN
Protocol: Partially purified tissue carnosinase as a solution in 0.1M phosphate buffer (pH 7.0) is prepared from the crude brain extracts of male Hairless rats by a reported procedure (Y. Courbebaisse, G. Langrand, J -F. Nicolay and M. A. Babizhayev, Proceeding of 19th IFSCC Congress, Australia, Vol. 3, 1996, p. 1-12; M. A. Babizhayev et al., Letters in Peptide Science, Vol. 5, 163, 1998). A solution of the substrate (450 μl) in 0.1M phosphate buffer (pH 7.0) is incubated with the diluted enzyme solution (50 μl) at 37° C. for 120 min. in the absence or in the presence of a carnosinase inhibitor. Portions of the reaction mixture are taken at the time points of 0, 2, 3, 4, 5, 10, 20, 40, 60 min and dansylated with dansyl chloride (5 mg of dansyl chloride/ml of acetonitrile solution) at 50° C. for 15 min. The each portion is subjected to HPLC analysis on a column C18DB using a gradient method (A=0.02N acetic acid/acetonitrile, 90/10; B=acetonitrile). The rate of the peptide hydrolysis is determined by following the decrease of the area under the curve (AUC) of the dansylated substrate.

[2] = test system: skin; assay: Cosmetic liposome composition applied on the skin of elderly volunteers; assay type: in vivo, human; conditions: 10 elderly subjects, applied on the skin twice daily for 15 days
[3] = test system: mice; conditions: mice supplemented with L-carnosine; cited from earlier work
[4] = test system: cells; conditions: L-carnosine supplementation of tissue cultures; cited from earlier work
[5] = test system: solid tumor cell lines; assay: Growth inhibition and induction of apoptosis in solid tumor cell lines; assay type: cell-based
Protocol: The experimental design, details of experimental procedure and human leukemia cell lines were essentially the same as those reported by Sekine et al. (Int. J. Cancer, Vol. 94, 485, 2001). The carnosinase inhibitor bestatine was used in the range of 5-15 μg/ml of concentration and the concentration of the applied carnosine varied from 5-20 mM . […] Our study was performed with this combination to examine whether bestatin+carnosine can also induce apoptosis in solid tumor cell lines.

[6] = substrate L-Carnosine 0.08 mM + inhibitor 0.5 mM

Structure (SMILES): NCC(=O)N[C@@H](Cc1cnc[nH]1)C(=O)O [Gly-L-His] (H-Gly-His-OH)
rate of hydrolysis [1, 6]: 6e-06 mol/min

Structure (SMILES): NCCC(=O)N[C@@H](Cc1c[nH]cn1)C(=O)O [L-Carnosine, β-alanyl-L-histidine]
skin pigmentation [2]: only a little whitening activity | rate of hydrolysis ([1]; L-Carnosine 0.08 mM + L-carnosine 0.3 mM (blank test)): 7.8e-05 mol/min | rate of hydrolysis ([1]; substrate L-Carnosine 0.08 mM alone (blank test)): 3.4e-05 mol/min | rate of hydrolysis ([1]; substrate L-Carnosine 0.3 mM alone (blank test)): 7.8e-05 mol/min | average life span longer than non-treated mice [3]: 20% | increase in cellular life span [4]: 67%

Structure (SMILES): O=C(O)[C@H](Cc1cnc[nH]1)NC(=O)[C@@H]1CCCN1 [L-Pro-L-His]
rate of hydrolysis [1, 6]: 9e-06 mol/min

Structure (SMILES): COC(=O)[C@H](CC(C)C)NC(=O)[C@@H](O)[C@H](N)Cc1ccccc1 [bestatin methyl ester]
cell growth ([5]; used with L-carnosine, compared with L-carnosine only): inhibited cell growth more clearly than the case where only L-carnosine is used

Second part, led by results:

rate of hydrolysis ([1]; substrate N-Acetyl-L-carnosine 0.08 mM alone (blank test)): 1e-06 mol/min
Structure (SMILES): CC(=O)NCCC(=O)N[C@@H](Cc1cnc[nH]1)C(=O)O [N-Acetyl-L-carnosine, N-acetyl-L-carnosine]

rate of hydrolysis [1, 6]: 3e-06 mol/min | rate of hydrolysis ([1]; substrate N-Acetyl-L-carnosine 0.08 mM + inhibitor 0.5 mM): 3.5e-07 mol/min
Structure (SMILES): CC(=O)NCCC(=O)O [N-acetyl-β-alanine]

rate of hydrolysis ([1]; substrate L-Carnosine 0.08 mM + inhibitor 0.5 nM): 2e-06 mol/min
Structure (SMILES): CC(C)C[C@H](NC(=O)[C@@H](O)[C@H](N)Cc1ccccc1)C(=O)O [bestatine, bestatin, reference compound]
growth inhibition and induction of apoptosis ([5]; bestatine 5-15 μg/ml, carnosine 5-20 mM): neither direct growth inhibition nor induction of apoptosis

rate of hydrolysis [1, 6]: 5e-06 mol/min | rate of hydrolysis ([1]; substrate L-Carnosine 0.3 mM + inhibitor 0.5 mM): 5.4e-05 mol/min
Structure (SMILES): NCCC(=O)O [β-alanine]

rate of hydrolysis [1, 6]: 4.5e-06 mol/min
Structure (SMILES): NCCCC(=O)NCCc1c[nH]cn1 [γ-aminobutyryl-histamine, γ-aminobutyrylhistamine]
